Our source for the IC50 values is patent publication US6984649B1, “Pyridine derivatives” (Bayer Aktiengesellschaft, priority 2000, dated 2006).

Bounds are passed on as bounds.

One assay has as its system A549 human lung epithelium cell line. The assay can be described thus: RANTES production in response to TNF-α from A549 cells. Type of assay: cell-based. The settings on record: Homo sapiens, A549, A549 cells, 100 ng/ml TNF-α, read-out: Cellular activity grade (A549) (Cellular IC50). The essentials:
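RANTES released into supernatant was measured by DELFIA-type sandwich immunoassay, Eu-labelled detection antibody, 340 nm excitation/615 nm emission, recombinant RANTES standard. Beforehand, cells seeded at 4×10^4/well received test compound (1% DMSO) for 1 h at 37 °C, followed by 24 h TNF-α (100 ng/ml) stimulation.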
For orientation: IC50 means the concentration that gives 50% inhibition. On to `N#Cc1c(C2CCNCC2)cc(-c2ccccc2O)nc1N` [Example 1-13], for which the IC50 is less than 1000 nM.

Consider `N#Cc1c(C2CCCCN2)cc(-c2ccccc2O)nc1N` (stereo not drawn) [Example 1-14], for which the IC50 is 1000 to 10000 nM.

With `N#Cc1c(C2CNCCN2)cc(-c2ccccc2O)nc1N` (stereo not drawn) [Example 1-15], the IC50 fell in the range of 1000 to 10000 nM.

As for `Cc1cccc(-c2cc(C3CCCNC3)c(C#N)c(N)n2)c1O` (stereo not drawn) [Example 1-17], the IC50 was 1000 to 10000 nM.

For `N#Cc1c(C2CCCNC2)cc(-c2ccc(O)cc2O)nc1N` (stereo not drawn) [Example 1-18], the IC50 was 1000 to 10000 nM.

With `N#Cc1c(C2CCCNC2)cc(-c2cccc(F)c2O)nc1N` (stereo not drawn) [Example 1-19], the IC50 was less than 1000 nM.

As to `N#Cc1c(C2CCCNC2)cc(-c2cccc(Cl)c2O)nc1N` (stereo not drawn) [Example 1-20], the IC50 was less than 1000 nM.

In the case of `Cc1cccc(O)c1-c1cc(C2CCCNC2)c(C#N)c(N)n1` (stereo not drawn) [Example 1-21], the IC50 lay in the range of 1000 to 10000 nM.

For the molecule `N#Cc1c(C2CCC(N)CC2)cc(-c2ccccc2O)nc1N` (stereo not drawn) [Example 1-22], the IC50 is less than 1000 nM.

For the molecule `N#Cc1c(C2CCCC(N)C2)cc(-c2ccccc2O)nc1N` (stereo not drawn) [Example 1-23], the IC50 is less than 1000 nM.

On to `N#Cc1c([C@@H](N)Cc2ccccc2)cc(-c2ccccc2O)nc1N` [Example 1-25], for which the IC50 fell in the range of 1000 to 10000 nM.

Regarding `COc1ccc(C[C@H](N)c2cc(-c3ccccc3O)nc(N)c2C#N)cc1` [Example 1-26], the IC50 was 1000 to 10000 nM.

In the case of `CCCC[C@H](N)c1cc(-c2ccccc2O)nc(N)c1C#N` [Example 1-28], the IC50 was more than 10000 nM.

In the case of `N#Cc1c([C@@H](N)CCc2ccccc2)cc(-c2ccccc2O)nc1N` [Example 1-29], the IC50 is more than 10000 nM.

In the case of `N#Cc1c([C@@H](N)Cc2ccc(F)cc2)cc(-c2ccccc2O)nc1N` [Example 1-30], the IC50 was 1000 to 10000 nM.

On to `N#Cc1c([C@@H]2CCCN2)cc(-c2ccccc2O)nc1N` [Example 1-31], for which the IC50 lay in the range of 1000 to 10000 nM.

For the molecule `C[C@H](N)c1cc(-c2ccccc2O)nc(N)c1C#N` [Example 1-32], the IC50 lay in the range of 1000 to 10000 nM.

Regarding `CC(C)[C@H](N)c1cc(-c2ccccc2O)nc(N)c1C#N` [Example 1-33], the IC50 was 1000 to 10000 nM.

In the case of `N#Cc1c([C@H](N)Cc2ccccc2)cc(-c2ccccc2O)nc1N` [Example 1-34], the IC50 is 1000 to 10000 nM.

For the molecule `N#Cc1c(CC(N)c2ccccc2)cc(-c2ccccc2O)nc1N` (stereo not drawn) [Example 1-35], the IC50 is 1000 to 10000 nM.

As to `N#Cc1c(CCN)cc(-c2ccccc2O)nc1N` [Example 1-37], the IC50 is less than 1000 nM.

Take `N#Cc1c(C2CCC(C(=O)O)CC2)cc(-c2ccccc2O)nc1N` (stereo not drawn) [Example 1-38]: the IC50 was in the range of 1000 to 10000 nM.

As to `CCc1cc(-c2ccccc2O)nc(N)c1C#N` [Example 1-39], the IC50 was more than 10000 nM.

As for `N#Cc1c([C@H](Cc2ccccc2)NC(=O)CCN2CCCCC2)cc(-c2ccccc2O)nc1N` [Example 1-40], the IC50 was in the range of 1000 to 10000 nM.

`N#Cc1c(C2CCCN(C(=O)CCN3CCCCC3)C2)cc(-c2ccccc2O)nc1N` (stereo not drawn) [Example 1-41]: the IC50 was in the range of 1000 to 10000 nM.

Regarding `CS(=O)(=O)N1CCCC(c2cc(-c3ccccc3O)nc(N)c2C#N)C1` (stereo not drawn) [Example 1-42], the IC50 was 1000 to 10000 nM.

Turning to `CCCN(CCC)C1CCCC(c2cc(-c3ccccc3O)nc(N)c2C#N)C1` (stereo not drawn) [Example 1-43], the IC50 is less than 1000 nM.

Consider `N#Cc1c(CCO)cc(-c2ccccc2O)nc1N` [Example 1-44], for which the IC50 was 1000 to 10000 nM.

Consider `Cc1cccc(COc2cccc(O)c2-c2cc(C3CCCNC3)c(C#N)c(N)n2)c1` (stereo not drawn) [Example 2-07], for which the IC50 lay within 1000 to 10000 nM.

For the molecule `Cc1ccc(COc2cccc(O)c2-c2cc(C3CCCNC3)c(C#N)c(N)n2)cc1` (stereo not drawn) [Example 2-08], the IC50 is less than 1000 nM.

`N#Cc1c(C2CCCNC2)cc(-c2c(O)cccc2OCc2cccc(C(F)(F)F)c2)nc1N` (stereo not drawn) [Example 2-09]: the IC50 is 1000 to 10000 nM.

Turning to `N#Cc1c(C2CCCNC2)cc(-c2c(O)cccc2OCc2ccc(C(F)(F)F)cc2)nc1N` (stereo not drawn) [Example 2-10], the IC50 fell in the range of 1000 to 10000 nM.

Staying with this assay, now noted: Homo sapiens, A549 cells, 100 ng/ml TNF-α, read-out: Cellular activity grade (A549) (Cellular IC50).
Turning to `CC(N)Cc1cc(-c2ccccc2O)nc(N)c1C#N` (stereo not drawn) [Example 1-36], the IC50 lay in the range of 1000 to 10000 nM.
